Measurements published in the supplement of paper PMC10307832.

Key:
Test in all cases: relative viability (nuclei count vs DMSO), 5 days (fraction); higher = more cells survive
[1] = compound: C1=CC=C2C(=C1)N=C(S2)C(C#N)C3=NC(=NC=C3)NCCC4=CN=CC=C4 + CC(=O)c1c(C)c2cnc(Nc3ccc(N4CCNCC4)cn3)nc2n(C2CCCC2)c1=O [Palbociclib] (partner 0.5 µM)
Outline: (§1)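 Lung cancer cell lines in 1536-well plates got either a single drug or a fixed anchor-drug dose together with five library-drug doses (not always all listed) in √10 steps, by pin tool, on the day after seeding. Nuclei were counted after 5 days, and relative viability is the treated-to-vehicle ratio of nuclei counts. Values are medians of duplicate plates.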

[2] = compound: C1=CC=C2C(=C1)N=C(S2)C(C#N)C3=NC(=NC=C3)NCCC4=CN=CC=C4 + C[C@@H](Oc1cc(-c2cnn(C3CCNCC3)c2)cnc1N)c1c(Cl)ccc(F)c1Cl [Crizotinib] (partner 1 µM)
Outline: as §1

[3] = compound: C1=CC=C2C(=C1)N=C(S2)C(C#N)C3=NC(=NC=C3)NCCC4=CN=CC=C4 + C[C@]1(O)C[C@@H](c2nc(-c3ccc4ccc(-c5ccccc5)nc4c3)c3c(N)nccn32)C1 [Linsitinib] (partner 1 µM)
Outline: as §1

[4] = compound: C1=CC=C2C(=C1)N=C(S2)C(C#N)C3=NC(=NC=C3)NCCC4=CN=CC=C4 + Cc1nc(NC(=O)N2CCC[C@H]2C(N)=O)sc1-c1ccnc(C(C)(C)C(F)(F)F)c1 [Alpelisib] (partner 2 µM)
Outline: as §1

Row | Cell Line | relative viability ([1]; first compound 0.005 µM) | relative viability ([1]; first compound 0.01581 µM) | relative viability ([1]; first compound 0.05 µM) | relative viability ([1]; first compound 0.1581 µM) | relative viability ([1]; first compound 0.5 µM) | relative viability ([2]; first compound 0.005 µM) | relative viability ([2]; first compound 0.01581 µM) | relative viability ([2]; first compound 0.05 µM) | relative viability ([2]; first compound 0.1581 µM) | relative viability ([2]; first compound 0.5 µM) | relative viability ([3]; first compound 0.005 µM) | relative viability ([3]; first compound 0.01581 µM) | relative viability ([3]; first compound 0.05 µM) | relative viability ([3]; first compound 0.1581 µM) | relative viability ([3]; first compound 0.5 µM) | relative viability ([4]; first compound 0.005 µM) | relative viability ([4]; first compound 0.01581 µM) | relative viability ([4]; first compound 0.05 µM) | relative viability ([4]; first compound 0.1581 µM) | relative viability ([4]; first compound 0.5 µM)
1 | HCC-15 | 0.701 | 0.771 | 0.734 | 0.74 | 0.627 | 0.734 | 0.851 | 0.833 | 1.02 | 0.776 | 0.842 | 0.911 | 0.926 | 0.888 | 0.882 | 0.927 | 0.833 | 0.905 | 0.954 | 0.853
2 | HCC-44 | 0.957 | 0.958 | 0.964 | 0.967 | 0.835 | 0.753 | 0.837 | 0.826 | 0.875 | 0.69 | 0.655 | 0.724 | 0.696 | 0.666 | 0.65 | 0.716 | 0.835 | 0.737 | 0.915 | 0.638
3 | HCC-78 | 0.333 | 0.431 | 0.506 | 0.485 | 0.478 | 0.325 | 0.36 | 0.325 | 0.491 | 0.317 | 0.492 | 0.423 | 0.33 | 0.582 | 0.549 | 0.366 | 0.316 | 0.353 | 0.366 | 0.378
4 | HCC-366 | 0.302 | 0.44 | 0.364 | 0.375 | 0.282 | 0.24 | 0.458 | 0.564 | 0.844 | 0.378 | 0.56 | 0.709 | 0.693 | 0.834 | 0.558 | 0.428 | 0.475 | 0.314 | 0.475 | 0.389
5 | HCC-827 | 0.415 | 0.597 | 0.432 | 0.492 | 0.512 | 0.874 | 0.945 | 0.907 | 0.958 | 0.905 | 0.988 | 0.987 | 0.961 | 1.03 | 0.931 | 0.962 | 1.01 | 0.943 | 1.15 | 1.02
6 | HOP-62 | 0.412 | 0.571 | 0.432 | 0.471 | 0.474 | 0.779 | 0.815 | 0.675 | 1.01 | 0.725 | 1.13 | 1.19 | 0.919 | 1.21 | 0.932 | 0.966 | 1.34 | 1.09 | 1.3 | 1.21
7 | LC-2-ad | 0.365 | 0.526 | 0.473 | 0.509 | 0.399 | 0.413 |  | 0.425 | 0.502 | 0.414 | 0.886 | 0.85 | 0.844 | 0.878 | 0.82 | 0.768 | 0.867 | 0.822 | 0.966 | 0.734
8 | LCLC-97TM1 | 0.236 | 0.265 | 0.235 | 0.251 | 0.19 | 0.28 | 0.394 | 0.368 | 0.326 | 0.256 | 0.218 | 0.186 | 0.175 | 0.191 | 0.225 | 0.217 | 0.208 | 0.257 | 0.257 | 0.217
